# According to patent EP4775586A1, “DEUTERATED TETRACYCLIC DERIVATIVE AND USE THEREOF” (priority 2023, dated 2025):
# Legend:
# [1] = tested on: Mycobacterium tuberculosis H37Rv; test: Minimum inhibitory concentration (MIC90) against Mycobacterium tuberculosis H37Rv, Middlebrook 7H9, 96-well plate, 15 days; assay type: cell-based; details: Mycobacterium tuberculosis H37Rv, 15 days of incubation, 90% inhibition of growth, visual reading
# CYP1A2 = target: T1, CYP1A2 (Mus musculus, UniProt P00186); assay type: in vitro ADME
# T1 construct: from tissue; host or cells: mouse liver microsomes (component of a kit)
# T1 sequence (P00186 1-513): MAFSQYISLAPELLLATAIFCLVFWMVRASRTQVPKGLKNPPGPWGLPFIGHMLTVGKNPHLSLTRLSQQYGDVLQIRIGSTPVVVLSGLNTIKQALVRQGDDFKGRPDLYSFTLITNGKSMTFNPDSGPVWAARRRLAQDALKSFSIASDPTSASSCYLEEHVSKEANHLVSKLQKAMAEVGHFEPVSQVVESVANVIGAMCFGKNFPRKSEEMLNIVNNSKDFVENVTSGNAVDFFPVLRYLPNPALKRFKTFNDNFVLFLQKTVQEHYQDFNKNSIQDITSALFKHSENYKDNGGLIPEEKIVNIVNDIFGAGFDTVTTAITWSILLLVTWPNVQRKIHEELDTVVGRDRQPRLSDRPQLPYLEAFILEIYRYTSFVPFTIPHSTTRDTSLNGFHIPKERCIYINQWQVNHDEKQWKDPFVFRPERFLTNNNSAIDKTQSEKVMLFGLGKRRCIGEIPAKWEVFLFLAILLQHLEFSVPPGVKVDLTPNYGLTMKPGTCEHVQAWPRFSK
# Protocol: (§1) This example was to detect the CYP450 metabolic enzyme phenotype of the deuterated compound YF027 and its non-deuterated control compound A (using a CYP450 enzyme metabolic phenotype research kit (recombinant enzymatic method/7 enzymes)-mouse liver microsome test).
# (§2) • a. The test compound was prepared into a 40 mM stock solution for later use. 2.5 µL of the stock solution was taken and diluted with DMSO to a test compound concentration of 200 µM, and the compound at this concentration was used in subsequent tests. • b. The working solution concentration of the mixed positive substrates, phenacetin and testosterone, was 200 µM.
# (§3) 1) The components of the kit were thawed in an ice bath. The mixture was well mixed by vortexing and then placed on ice for later use. 2) In addition to the microsomes, the other components of the incubation systems were mixed according to the ratios and well mixed by pipetting, and the ratios of the incubation systems are shown below; Table 6. Incubation system of positive control group
# (§4) The inhibitors were quinidine, naphthoflavone, pilocarpine, sodium diethyldithiocarbamate, ticlopidine, ketoconazole, and sulfaphenazole, which corresponded to the inhibition of CYP450 enzymes CYP2D6, CYP1A2, CYP2A6, CYP2E1, CYP2C19, CYP3A4, and CYP2C9, respectively. Table 9. Incubation system of negative control group
# (§5) 3) Except for the negative control group (Table 9), 3.125 µL of liver microsomes was added to each of the above incubation systems to prepare 125 µL of reaction solution. The reaction solutions were well mixed by vortexing, and then placed in a water bath at 37 °C to initiate the reaction. A timer was set. 4) At time points of 0 min and 90 min, 50 µL of reaction solution was taken, and a pre-cooled acetonitrile solution was added to the reaction solution. The mixture was quickly well mixed by vortexing to stop the reaction. 5) Mass spectrometry detection pretreatment of reaction solution
# (§6) The reaction solution was cryopreserved in a refrigerator at -80 °C overnight and then centrifuged for mass spectrometry detection.
# (§7) The detection values after 90 min of incubation were processed as ratios relative to the 0-min detection values to determine the metabolic rate of the compounds in different experimental groups after 90 min. The metabolic inhibition rate was then calculated using the formula: Inhibition rate (%) = (1 - metabolic rate of sample with inhibitor/metabolic rate of sample without inhibitor) × 100%, as shown in Table 10 below. […] The metabolic inhibition rate reflects the effect on the metabolic elimination of the drug after adding different selective inhibitors. […]
# CYP2E1 = target: T2, CYP2E1 (Mus musculus, UniProt Q05421); assay type: in vitro ADME
# T2 construct: from tissue; host or cells: mouse liver microsomes (component of a kit)
# Protocol: as §1, §2, §3, §4, §5, §6, §7
# [2] = tested on: Mycobacterium tuberculosis H37Rv; assay type: in vivo, BALB/c mice
# [3] = 28-day repeat-dose toxicity study in mice; assay type: in vivo, Balb/c mice
# Protocol: Administration groups of the compound YF027 of the present disclosure and its non-deuterated control compound A were set for a 28-day repeat-dose toxicity study in mice. Each compound was administered to 10 Balb/c mice (5 females and 5 males, purchased from Beijing Vital River Laboratory Animal Technology Co., Ltd.) by intragastric administration. The administration was performed once daily for 6 consecutive days a week for 4 consecutive weeks, and an 8% Tween 80 vehicle control group (10 Balb/c mice, 5 females and 5 males) was set for administration at the same volume using the same method. Table 12. Administration information of repeat-dose toxicity assay
# During the administration period, the mice were observed every day. The body weight, appearance signs, behavior and activity, fecal traits, and local reactions at the site of administration were recorded. After the end of the administration, the gross anatomy was performed on the mice in the administration group and the control group. The serum of the mice was collected, and the heart, liver, spleen, kidney, lung, and brain tissues and organs were weighed to calculate organ coefficients. The tissue samples of all groups were subjected to histopathological detection, and the serum samples were analyzed for biochemical parameters of liver and kidney functions. The serum biochemical parameters included: alanine aminotransferase (ALT), aspartate aminotransferase (AST), alkaline phosphatase (ALP), urea (UREA), creatinine (CREA), total protein (TP), and albumin (ALB). Statistical analysis was performed to evaluate potential toxic effects of the compounds.
# T2 sequence (Q05421 whole entry): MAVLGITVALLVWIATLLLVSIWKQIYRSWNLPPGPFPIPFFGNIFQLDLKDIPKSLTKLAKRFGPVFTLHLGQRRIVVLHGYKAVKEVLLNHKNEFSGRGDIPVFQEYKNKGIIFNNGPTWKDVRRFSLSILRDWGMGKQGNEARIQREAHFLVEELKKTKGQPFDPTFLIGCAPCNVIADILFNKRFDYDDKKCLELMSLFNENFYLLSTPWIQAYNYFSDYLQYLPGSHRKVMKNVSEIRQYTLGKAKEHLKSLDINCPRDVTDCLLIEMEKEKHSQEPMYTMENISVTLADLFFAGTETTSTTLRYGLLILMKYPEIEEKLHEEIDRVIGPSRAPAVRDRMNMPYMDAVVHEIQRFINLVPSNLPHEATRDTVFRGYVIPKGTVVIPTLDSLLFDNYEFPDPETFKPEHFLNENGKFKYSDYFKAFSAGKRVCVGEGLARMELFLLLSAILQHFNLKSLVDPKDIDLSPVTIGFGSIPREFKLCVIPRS
smiles,measurement,setting,value
"Cl.[2H]C1([2H])CCCC([2H])([2H])N1C([2H])([2H])c1c(O)cc(C(C)(C)C)c2oc3c4ccc(O)cc4oc(=O)c3c12 [YF027, 10-(tert-Butyl)-3,8-dihydroxy-7-((piperidin-1-yl-2,2,6,6-d4)methyl-d2)-6H-benzofuran[3,2-c]chromen-6-one hydrochloride]",MIC90,[1],≤3.9 ng/mL
same,Inhibition rate,CYP1A2,0.4%
same,Inhibition rate,CYP2E1,-15.1%
same,pulmonary Mycobacterium tuberculosis clearance rate,"[2]; 100 mg/kg intragastrically, 4 weeks, mice",99.0%
same,reduction of pulmonary bacterial load,"[2]; mouse, in vivo",1.98 log
same,toxic response after repeated administration,"[3]; 100 mg/kg for 28 consecutive days, mice",did not produce a significant toxic response
same,mortality during the administration period,"[3]; 100 mg/kg intragastric, once daily, 6 days a week, 4 weeks, Balb/c mice",no mice died
same,toxicity compared with the non-deuterated compound A,"[3]; same dosing conditions, 100 mg/kg, 28 days, mice",no increased toxicity was observed
